Source: PubChem BioAssay (NCI)
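These data come from cells grown in 96-well plates and exposed to compound for 48 hours at five concentrations. Here, GI50 denotes the concentration required for 50% inhibition of growth. TGI denotes the concentration required for complete inhibition of growth.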

Legend:
Test in all cases: NCI-60 cell line screen, 48 h
A498 renal = test system: A498 renal
COLO 205 colon = test system: COLO 205 colon
HCC-2998 colon = test system: HCC-2998 colon
HOP-62 NSCLC = test system: HOP-62 NSCLC
HS 578T breast = test system: HS 578T breast
HT29 colon = test system: HT29 colon
M14 melanoma = test system: M14 melanoma
SR leukemia = test system: SR leukemia
TK-10 renal = test system: TK-10 renal
UACC-62 melanoma = test system: UACC-62 melanoma

Row | Structure (SMILES) | TGI (A498 renal) [µM] | TGI (COLO 205 colon) [µM] | TGI (HCC-2998 colon) [µM] | TGI (HOP-62 NSCLC) [µM] | TGI (HS 578T breast) [µM] | TGI (HT29 colon) [µM] | TGI (M14 melanoma) [µM] | TGI (SR leukemia) [µM] | TGI (TK-10 renal) [µM] | TGI (UACC-62 melanoma) [µM] | GI50 (A498 renal) [µM] | GI50 (COLO 205 colon) [µM] | GI50 (HCC-2998 colon) [µM] | GI50 (HOP-62 NSCLC) [µM] | GI50 (HS 578T breast) [µM] | GI50 (HT29 colon) [µM] | GI50 (M14 melanoma) [µM] | GI50 (SR leukemia) [µM] | GI50 (TK-10 renal) [µM] | GI50 (UACC-62 melanoma) [µM]
1 | CC(=O)O[C@H]1C(=O)[C@@]2(C)C(C(OC(=O)c3ccccc3)[C@]3(O)C[C@H](OC(=O)C(OC(=O)CCCC(=O)NCCCN(C)C)C(NC(=O)c4ccccc4)c4ccccc4)C(C)=C1C3(C)C)C1(OC(C)=O)COC1C[C@@H]2O (stereo partly drawn) | 45.6 | 0.0147 | 0.0309 | 11.4 | 0.0151 | 2.22 | 25 | 58.2 | 33.3 | 7 |  |  |  |  |  |  |  |  |  | 
2 | CCN(CCCN(C)C)Cc1cc(I)cc(C)c1O | 38.6 | 36.8 | 32.2 | 34.4 | 33.1 | 32.4 | 31 | 14.5 | 22.6 | 37.1 | 20.4 | 18.9 | 16.1 | 17 | 15.3 | 14.7 | 16.6 | 1.04 | 4.85 | 16.4
3 | COc1ccc(C(c2cc(OC)c(OC)c(OC)c2)n2ccnc2)cc1O (stereo not drawn) | 0.941 | 1.77 | > 100 | > 100 | > 100 | 1.02 | 0.646 | > 100 |  | > 100 | 0.304 | 0.361 | 1.72 | 0.516 | 0.414 | 0.312 | 0.18 | 0.182 |  | 0.668
4 | O=C(Nc1ccc2[nH]nc(-c3ccncc3)c2c1)[C@@H]1CCN(CC(=O)N2CCN(c3ccc(-c4ncccn4)cc3)CC2)C1 | 0.533 | > 82.3 | > 100 | > 100 | > 100 | > 100 | 0.289 | > 65.4 |  |  | 0.0778 | < 0.012 | 0.241 | 0.281 | > 100 | 0.0335 | 0.0282 | 4.41 |  | 
5 | CCSCC1CC(O)(c2ccccc2)CC(c2ccc(F)cc2)O1 (stereo not drawn) | 2.77 | 2.87 | 7.11 | 3.29 | 4.36 | 3.46 | 3.32 |  | 6.13 | 3.2 | 1.44 | 1.53 | 2.56 | 1.75 | 1.89 | 1.73 | 1.76 |  | 2.16 | 1.42
6 | Cc1cc(O)c(=O)cc2c1C[C@H]1CC(C)(C)/C=C/C[C@]3(C)Oc4cc(=O)c(O)cc(C)c4C[C@H]3C[C@H](O)[C@@]1(C)O2 |  |  | > 100 | 0.0987 | > 100 | > 100 | 19.7 | 0.591 | 9.95 | 0.157 |  |  | < 0.0149 | 0.02 | 0.0339 | < 0.01 | 0.0266 | < 0.0115 | 0.0211 | 0.0296
7 | c1ccc2sc(SCCSc3nc4ccccc4s3)nc2c1 | > 100 |  | > 100 | > 100 | > 100 | > 100 | > 100 | > 100 | > 100 | > 100 |  |  |  |  |  |  |  |  |  | 
8 | NNC(=S)N/N=C(\C(=O)Nc1cccc(O)c1)C1C(=O)NC(=S)NC1=O | > 100 |  | > 100 | > 100 | > 100 | > 100 | > 100 | > 100 | > 100 | > 100 |  |  |  |  |  |  |  |  |  | 
9 | CCC(C)[C@H]1O[C@]2(CC[C@@H]1C)C[C@@H]1C[C@@H](C/C=C(\C)[C@@H](OC3C[C@H](OC)C(O[C@H]4C[C@H](OC)[C@@H](O)[C@H](C)O4)[C@H](C)O3)[C@@H](C)/C=C/C=C3\CO[C@@H]4[C@H](O)C(C)=C[C@@H](C(=O)O1)[C@]34O)O2 (stereo partly drawn) | 7.72 | 3.1 |  | 4.85 | 20.7 | 5.81 | 11.2 | 33.7 | 12.7 | 6.5 | 1.79 | 1.63 |  | 1.8 | 3.76 | 2.4 | 3.15 | 5.79 | 3.08 | 1.89
10 | Fc1cc2[nH]ncc2c2c3c(c(-c4cn[nH]c4C(F)(F)F)nc12)CCCC3 | 3.09 | 4.32 | 4.99 | 6.19 | 5.26 | > 100 | 4.12 | 5.87 |  | 3 | 1.56 | 1.55 | 1.64 | 1.65 | 1.66 | 2.95 | 1.31 | 0.716 |  | 1.31
11 | Cc1cc(S(=O)(=O)Nc2nc3ccccc3o2)c(SCc2ccccc2)cc1Cl | 43.3 | 51.1 |  | > 100 | 78.9 | > 100 | 38 | > 100 | 90.7 | 79.5 | 23.1 | 22.1 |  | 28.5 | 29.5 | 33.8 | 17.5 | 11.5 | 28.6 | 28.7
12 | COc1cc(Nc2nc3cc(N)cc(N)c3nc2-c2ccccc2)cc(OC)c1OC | > 100 | 27.1 |  | 34.3 | 78.1 | 35 | 44.9 | 16 | 66.5 | 31.8 | 31.3 | 14 |  | 16.3 | 15 |  | 19.6 | 3.31 | 23.9 | 13.6
13 | CS(=O)(=O)Nc1cncc(-c2ccc3ncnc(Nc4ccc(F)c(Cl)c4)c3c2)c1 | 3.2 | 5.97 | 16.8 | 20.2 | 4.38 | 11.4 | 15.1 | 10.2 |  | 11.8 | 0.57 | 1.95 | 4.19 | 2.51 | 1.07 | 2.43 | 3.33 | 1.78 |  | 2.22
14 | CC(N)C(Cc1ccc(Cl)cc1)c1ccc(Cl)cc1 (stereo not drawn) | 30.7 | 3.97 | 4.11 | 28.4 | 39.7 | 13.6 | 18.9 |  | 26.2 | 19.6 | 15.1 | 1.89 | 1.96 | 13.1 | 13.8 | 3.29 | 5.53 |  | 12.6 | 6.01
